According to PMC7587356, “High-Throughput Screening for Inhibitors of the SARS-CoV-2 Protease Using a FRET-Biosensor” (Molecules, 2020):
Where two headings read alike, the source gives them in different places.

Experiments:
SARS-CoV-2 3CLpro [1] = target: T1, SARS-CoV-2 3CLpro (Severe acute respiratory syndrome coronavirus 2, UniProt P0DTD1); test: biochemical; assay type: biochemical; conditions: sheet LOPAC_screen_w_protease, primary screen at 5 µM; for inhibition at 5 µM: 4 h
SARS-CoV-2 3CLpro [2] = target: T1, SARS-CoV-2 3CLpro; test: biochemical; assay type: biochemical
[3] = with 0.01% Triton X-100; mean ± SD of triplicate; 4 h, 30 °C; read-out: A) EC50 with Triton X-100
[4] = without Triton X-100; mean ± SD of triplicate; 4 h, 30 °C; read-out: B) EC50 without Triton X-100
[5] = mean of two replicates, read-out: mean (LOPAC screen with protease)
[6] = replicate 1, read-out: Replicate_1 (LOPAC screen with protease)
[7] = replicate 2, read-out: Replicate_2 (LOPAC screen with protease)

| Compound | mean (LOPAC screen with protease) (SARS-CoV-2 3CLpro [1]; mean of two replicates) | Replicate_1 (LOPAC screen with protease) (SARS-CoV-2 3CLpro [1]; replicate 1) | Replicate_2 (LOPAC screen with protease) (SARS-CoV-2 3CLpro [1]; replicate 2) | Ratio (A/B) (SARS-CoV-2 3CLpro [2]) | EC50 (SARS-CoV-2 3CLpro [2]; [3]) [µM] | EC50 (SARS-CoV-2 3CLpro [2]; [4]) [µM] | inhibition at 5 µM (SARS-CoV-2 3CLpro [1]; [5]) [%] | inhibition at 5 µM (SARS-CoV-2 3CLpro [1]; [6]) [%] | inhibition at 5 µM (SARS-CoV-2 3CLpro [1]; [7]) [%] | EC50 (SARS-CoV-2 3CLpro [2]; with 0.01% Triton X-100, read-out: EC50) [µM] | Ratio (A/B) (SARS-CoV-2 3CLpro [2]; EC50 with Triton X-100 / EC50 without Triton X-100, ratio greater than 2 suggests aggregation-based inhibitor) |
| --- | --- | --- | --- | --- | --- | --- | --- | --- | --- | --- | --- |
| CN(N=O)c1ccc(O)c(O)c1 [Me-3,4-dephostatin, reference compound] | 27.3002 | 29.2005 | 25.3998 | 2.1 | 3.78 ± 0.867 | 1.82 ± 0.925 |  |  |  |  |  |
| Oc1ccccc1O [Pyrocatechol, reference compound] | 52.6956 | 53.9412 | 51.45 | 1.0 | 4.04 ± 1.43 | 4.09 ± 1.22 |  |  |  |  |  |
| CCOC(=O)[C@]12CC1/C(=N\O)c1ccccc1O2 (mixture of isomers) [CPCCOEt, reference compound] |  |  |  |  | > 20 | > 20 | 26.9 | 0.406 | 53.3 |  |  |
| N=C1Sc2ccccc2C2=NCCCN12 [PD 404,182, reference compound] |  |  |  | 1.4 |  | 0.06 ± 0.012 | 101 | 101 | 100 | 0.081 |  |
| NC(Cc1cc(O)c(O)cc1O)C(=O)O (racemic) [6-Hydroxy-dl-DOPA, reference compound] | 66.3118 | 69.7112 | 62.9123 |  | 1.32 ± 0.118 | 0.652 ± 0.259 |  |  |  |  | 2.0 |
| CC1(NCC(O)COc2cccc3[nH]ccc23)CCC(C(C)(C)NC(=O)CBr)CC1 (racemic) [(±)-Pindobind, reference compound] | 33.6627 | 33.8938 | 33.4316 |  | 4.69 ± 3.32 | > 20 |  |  |  |  |  |
